Key:
[1] = test system: HCV; conditions: combination therapy; cited from earlier work
[2] = test system: HCV; conditions: cited from earlier work
[3] = test system: genotype 1b (Con-1) HCV replicon in Huh-7 cells; experiment: HCV replicon luciferase assay; assay type: cell-based; conditions: 1b replicon, Huh-7, Renilla luciferase, 3 days incubation
Outline: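 Huh-7 cells carrying Con-1 genotype 1b replicon with Renilla luciferase reporter seeded onto titrated compound in DMEM, 4% FBS, 0.5% DMSO, 3 days at 37 °C. Luciferase read with EnduRen substrate (7.5 μM final) after ≥1 h; EC50 by four-parameter logistic fit.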

[4] = target: T1, NS5B proteins of HCV genotype 1b (Con1) (Hepatitis C virus genotype 1b, UniProt Q9WMX2); experiment: HCV NS5B RdRp enzyme assay; assay type: biochemical; conditions: 1b enzyme
T1 construct: Each untagged protein was expressed with an 18 amino acid C-terminal truncation to enhance the solubility; made in house; host or cells: E. coli BL21(DE3), pET21a
T1 sequence (Q9WMX2 2420-2992): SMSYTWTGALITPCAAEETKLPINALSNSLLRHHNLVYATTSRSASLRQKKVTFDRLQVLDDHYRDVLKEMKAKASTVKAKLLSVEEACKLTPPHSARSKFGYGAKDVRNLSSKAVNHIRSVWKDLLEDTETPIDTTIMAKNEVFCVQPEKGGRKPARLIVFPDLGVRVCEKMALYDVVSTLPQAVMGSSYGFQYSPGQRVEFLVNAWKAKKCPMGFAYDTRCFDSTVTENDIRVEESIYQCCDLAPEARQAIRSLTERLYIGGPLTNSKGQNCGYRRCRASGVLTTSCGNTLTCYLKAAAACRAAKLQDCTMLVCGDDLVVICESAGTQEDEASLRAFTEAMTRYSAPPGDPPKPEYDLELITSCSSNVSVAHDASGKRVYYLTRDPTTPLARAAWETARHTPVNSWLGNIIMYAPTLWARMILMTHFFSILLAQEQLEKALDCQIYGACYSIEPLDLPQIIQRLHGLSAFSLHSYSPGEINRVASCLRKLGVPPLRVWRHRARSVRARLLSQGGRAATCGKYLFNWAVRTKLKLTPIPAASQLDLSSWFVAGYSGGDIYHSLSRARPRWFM
Outline: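 Untagged NS5B (C-terminal 18-aa truncation) in an on-bead scintillation-proximity format: poly A template (0.36 nM), biotin-dT12 primer (15 nM), 0.29 μM ³H-UTP, 7 nM enzyme, 20 mM Hepes pH 7.5, 2.5 mM MgCl2. Reactions ran 4–24 h at 30 °C (24 h runs with 24 h enzyme–inhibitor preincubation), stopped with EDTA. IC50 from ten concentrations, four-parameter logistic fit.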

Compound	EC50 ([3]; Hepatitis C virus, Huh-7, 72 h) [nM]	IC50 [4] [nM]	EC50 [3] [nM]	further results
alpha-interferon and ribavirin				sustained efficacy, share of patients [1]: 40%
CNC(=O)c1c(-c2ccc(F)cc2)oc2cc(N(CCO)S(C)(=O)=O)c(C3CC3)cc12 [HCV-796]				hepatic toxicity ([2]; extended dosing of the combination regimens): hepatic toxicity observed; HCV RNA levels in patients ([2]; patients, transient as single agent, more robust with interferon and ribavirin): reduce HCV RNA levels
CCCc1cc2oc(-c3ccc(F)cc3)c(C(=O)NC)c2cc1-c1cccc(C(=O)NC2(c3ncccn3)CC(OC(F)(F)F)C2)c1 (stereo not drawn) [Example 44, 2-(4-Fluorophenyl)-N-methyl-6-propyl-5-(3-((1-(pyrimidin-2-yl)-3-(trifluoromethoxy)cyclobutyl)carbamoyl)phenyl)benzofuran-3-carboxamide]	9.51	5.87		
CNC(=O)c1c(-c2ccc(F)cc2)oc2cc(NCC(F)(F)F)c(-c3cccc(C(=O)NC4(c5ncccn5)CC(OC(F)F)C4)c3)cc12 (single isomer, unassigned) [Example 65b]		4.73	4.23	
CNC(=O)c1c(-c2ccc(F)cc2)oc2cc(NCC(F)(F)F)c(-c3ccc(OC)c(C(=O)NC4(c5ncccn5)CC(OC(F)F)C4)c3)cc12 (single isomer, unassigned) [Example 64a]	4.23	3.3		
CNC(=O)c1c(-c2ccc(F)cc2)oc2ccc(-c3cc(C(=O)NC4(c5ncccn5)CC(F)C4)ccc3C)c(F)c12 (stereo not drawn) [Example 16, 4-Fluoro-5-(5-(3-fluoro-1-(pyrimidin-2-yl)cyclobutylcarbamoyl)-2-methylphenyl)-2-(4-fluorophenyl)-N-methylbenzofuran-3-carboxamide]	6.62	30		
CNC(=O)c1c(-c2ccc(F)cc2)oc2ccc(-c3cc(C(=O)NC4(c5ncccn5)CC(F)C4)cc(F)c3C)c(F)c12 (stereo not drawn) [Example 20, 4-Fluoro-5-(3-fluoro-5-(3-fluoro-1-(pyrimidin-2-yl)cyclobutylcarbamoyl)-2-methylphenyl)-2-(4-fluorophenyl)-N-methylbenzofuran-3-carboxamide]	6.16	90		
CNC(=O)c1c(-c2ccc(F)cc2)oc2cc(CCC(F)(F)F)c(-c3cccc(C(=O)NC4(c5ncccn5)CC(OC(F)F)C4)c3)cc12 (single isomer, unassigned) [Example 29a]		6.14	4.07	
CNC(=O)c1c(-c2ccc(F)cc2)oc2ccc(-c3cc(C(=O)NC4(c5ncccn5)CC(F)(F)C4)cc(F)c3C)c(F)c12 [Example 17, 5-(5-((3,3-Difluoro-1-(pyrimidin-2-yl)cyclobutyl)carbamoyl)-3-fluoro-2-methylphenyl)-4-fluoro-2-(4-fluorophenyl)-N-methylbenzofuran-3-carboxamide]	10	250		
CNC(=O)c1c(-c2ccc(F)cc2)oc2ccc(-c3cc(C(=O)NC4(c5ncccn5)CC(O)C4)ccc3C)c(F)c12 (single isomer, unassigned) [Example 5b, 4-Fluoro-2-(4-fluorophenyl)-5-(5-((3-hydroxy-1-(pyrimidin-2-yl)cyclobutyl)carbamoyl)-2-methylphenyl)-N-methylbenzofuran-3-carboxamide]		230	1190	
CNC(=O)c1c(-c2ccc(F)cc2)oc2ccc(-c3cc(C(=O)NC4(c5ncccn5)CC(O)C4)ccc3C)c(F)c12 (single isomer, unassigned) [Example 5a, 4-Fluoro-2-(4-fluorophenyl)-5-(5-((3-hydroxy-1-(pyrimidin-2-yl)cyclobutyl)carbamoyl)-2-methylphenyl)-N-methylbenzofuran-3-carboxamide]		1280	3860	

— US11161837B2, “Benzofuran derivatives for the treatment of hepatitis C” (BRISTOL-MYERS SQUIBB COMPANY, priority 2016, dated 2021)
